Reference: patent publication US10105357B2, “Indication of antibiotic drugs for preparation of cancer inhibition pharmaceutical composition” (LAUNX BIOMEDICAL CO., LTD., priority 2014, dated 2018)
Where two headings read alike, the source gives them in different places.

Assays:
[1] = test system: MKN-45 (Gastric Adenocarcinoma); experiment: Cell viability analysis, gastric cancer MKN-45; type: cell-based, human; details: Homo sapiens
[2] = test system: HCT116 (p53+) (Colorectal Carcinoma); experiment: cells; details: Homo sapiens, HCT-116, 72 h, read-out: cell viability (survival rate), HCT116
[3] = test system: A549 (Lung Adenocarcinoma); experiment: Cell viability analysis, lung cancer A549; type: cell-based, human; details: Homo sapiens
[4] = test system: AGS (Gastric Adenocarcinoma); experiment: Cell viability analysis, gastric cancer AGS; type: cell-based, human; details: Homo sapiens
[5] = test system: HL-60 (Acute Promyelocytic Leukemia); experiment: Cell viability analysis, leukemia HL-60; type: cell-based, human; details: Homo sapiens
[6] = test system: LoVo (Colorectal Adenocarcinoma); experiment: Cell viability analysis, colon cancer LoVo; type: cell-based, human; details: Homo sapiens, LoVo
[7] = test system: TSGH-8301 (Urinary Bladder Carcinoma); experiment: Cell viability analysis, bladder cancer TSGH-8301; type: cell-based, human; details: Homo sapiens
[8] = test system: A375 (Amelanotic Melanoma); experiment: Cell viability analysis, skin cancer A375; type: cell-based, human; details: Homo sapiens
[9] = test system: HeLa (Cervix Adenocarcinoma); experiment: Cell viability analysis, cervical cancer HeLa; type: cell-based, human; details: Homo sapiens, HeLa
[10] = test system: HI650 (Lung Adenocarcinoma); experiment: Cell viability analysis, lung cancer HI650; type: cell-based, human; details: Homo sapiens
[11] = test system: MCF7 (Mammary Gland, Adenocarcinoma); experiment: Cell viability analysis, breast cancer MCF7; type: cell-based, human; details: Homo sapiens
[12] = test system: HepG2 (Hepatocellular Carcinoma); experiment: Cell viability analysis, hepatic cancer HepG2; type: cell-based, human; details: Homo sapiens
[13] = test system: PC3 (p53−) (Prostate Adenocarcinoma); experiment: Cell viability analysis, prostate cancer PC3; type: cell-based, human; details: Homo sapiens
[14] = MKN-45, 72 h, drug 10 μM, 72 hours, WST-1, OD450 nm, read-out: cell viability (survival rate), MKN-45
[15] = A549, 72 h, drug 10 μM, 72 hours, WST-1, OD450 nm, read-out: cell viability (survival rate), A549
[16] = 72 h, drug 10 μM, 72 hours, WST-1, OD450 nm, read-out: cell viability (survival rate), AGS
[17] = HL-60, 72 h, drug 10 μM, 72 hours, WST-1, OD450 nm, read-out: cell viability (survival rate), HL-60
[18] = 72 h, read-out: cell viability (survival rate), LoVo, drug 10 μM, 72 hours, WST-1, OD450 nm
[19] = 72 h, drug 10 μM, 72 hours, WST-1, OD450 nm, read-out: cell viability (survival rate), TSGH
[20] = A-375, 72 h, drug 10 μM, 72 hours, WST-1, OD450 nm, read-out: cell viability (survival rate), A375
[21] = 72 h, drug 10 μM, 72 hours, WST-1, OD450 nm, read-out: cell viability (survival rate), HeLa
[22] = NCI-H1650, 72 h, drug 10 μM, 72 hours, WST-1, OD450 nm, read-out: cell viability (survival rate), H1650
[23] = MCF7, 72 h, drug 10 μM, 72 hours, WST-1, OD450 nm, read-out: cell viability (survival rate), MCF7
[24] = HepG2, 72 h, drug 10 μM, 72 hours, WST-1, OD450 nm, read-out: cell viability (survival rate), HepG2
[25] = 72 h, drug 10 μM, 72 hours, WST-1, OD450 nm, read-out: cell viability (survival rate), PC3
[26] = MKN-45, drug 10 μM, 72 hours, WST-1, OD450 nm, read-out: cell viability (survival rate), MKN-45
[27] = A549, drug 10 μM, 72 hours, WST-1, OD450 nm, read-out: cell viability (survival rate), A549
[28] = drug 10 μM, 72 hours, WST-1, OD450 nm, read-out: cell viability (survival rate), AGS
[29] = HL-60, drug 10 μM, 72 hours, WST-1, OD450 nm, read-out: cell viability (survival rate), HL-60
[30] = drug 10 μM, 72 hours, WST-1, OD450 nm, read-out: cell viability (survival rate), LoVo
[31] = drug 10 μM, 72 hours, WST-1, OD450 nm, read-out: cell viability (survival rate), TSGH
[32] = A-375, drug 10 μM, 72 hours, WST-1, OD450 nm, read-out: cell viability (survival rate), A375
[33] = drug 10 μM, 72 hours, WST-1, OD450 nm, read-out: cell viability (survival rate), HeLa
[34] = NCI-H1650, drug 10 μM, 72 hours, WST-1, OD450 nm, read-out: cell viability (survival rate), H1650
[35] = MCF7, drug 10 μM, 72 hours, WST-1, OD450 nm, read-out: cell viability (survival rate), MCF7
[36] = HepG2, drug 10 μM, 72 hours, WST-1, OD450 nm, read-out: cell viability (survival rate), HepG2
[37] = drug 10 μM, 72 hours, WST-1, OD450 nm, read-out: cell viability (survival rate), PC3
[38] = MKN-45, 72 h, read-out: cell viability (survival rate), MKN-45, drug 10 μM, 72 hours, WST-1, OD450 nm
[39] = A549, 72 h, read-out: cell viability (survival rate), A549, drug 10 μM, 72 hours, WST-1, OD450 nm
[40] = 72 h, read-out: cell viability (survival rate), AGS, drug 10 μM, 72 hours, WST-1, OD450 nm
[41] = HL-60, 72 h, read-out: cell viability (survival rate), HL-60, drug 10 μM, 72 hours, WST-1, OD450 nm
[42] = 72 h, read-out: cell viability (survival rate), TSGH, drug 10 μM, 72 hours, WST-1, OD450 nm
[43] = A-375, 72 h, read-out: cell viability (survival rate), A375, drug 10 μM, 72 hours, WST-1, OD450 nm
[44] = 72 h, read-out: cell viability (survival rate), HeLa, drug 10 μM, 72 hours, WST-1, OD450 nm
[45] = NCI-H1650, 72 h, read-out: cell viability (survival rate), H1650, drug 10 μM, 72 hours, WST-1, OD450 nm
[46] = MCF7, 72 h, read-out: cell viability (survival rate), MCF7, drug 10 μM, 72 hours, WST-1, OD450 nm
[47] = HepG2, 72 h, read-out: cell viability (survival rate), HepG2, drug 10 μM, 72 hours, WST-1, OD450 nm
[48] = 72 h, read-out: cell viability (survival rate), PC3, drug 10 μM, 72 hours, WST-1, OD450 nm

Row | SMILES | viability at 10 µM [2] [%] | viability at 10 µM [6, 18] [%] | viability at 10 µM [1, 38] [%] | viability at 10 µM [3, 39] [%] | viability at 10 µM [4, 40] [%] | viability at 10 µM [5, 41] [%] | viability at 10 µM [7, 42] [%] | viability at 10 µM [8, 43] [%] | viability at 10 µM [9, 44] [%] | viability at 10 µM [10, 45] [%] | viability at 10 µM [11, 46] [%] | viability at 10 µM [12, 47] [%] | viability at 10 µM [13, 48] [%] | other results
1 | COC(=O)N/N=C/c1c[n+]([O-])c2ccccc2[n+]1[O-] [Carbadox] | 72.8 | 54.4 |  |  |  |  |  |  |  |  |  |  |  | viability at 10 µM [1, 14]: 104%; viability at 10 µM [3, 15]: 24.8%; viability at 10 µM [4, 16]: 51.9%; viability at 10 µM [5, 17]: 87%; viability at 10 µM [7, 19]: 67.9%; viability at 10 µM [8, 20]: 52.4%; viability at 10 µM [9, 21]: 60%; viability at 10 µM [10, 22]: 56.9%; viability at 10 µM [11, 23]: 34.6%; viability at 10 µM [12, 24]: 88.7%; viability at 10 µM [13, 25]: 52.5%
2 | COC(=O)C1=CO[C@@H](O[C@@H]2O[C@H](CO)[C@@H](O)[C@H](O)[C@H]2O)[C@@H]2C(CO)=CC[C@H]12 [Geniposide] | 73.9 |  |  |  |  |  |  |  |  |  |  |  |  | viability at 10 µM [1, 26]: 45.6%; viability at 10 µM [3, 27]: 63.7%; viability at 10 µM [4, 28]: 54.2%; viability at 10 µM [5, 29]: 120%; viability at 10 µM [6, 30]: 74.1%; viability at 10 µM [7, 31]: 53.1%; viability at 10 µM [8, 32]: 73.4%; viability at 10 µM [9, 33]: 81%; viability at 10 µM [10, 34]: 71.2%; viability at 10 µM [11, 35]: 73.8%; viability at 10 µM [12, 36]: 88.6%; viability at 10 µM [13, 37]: 65.5%
3 | CN(C)[C@@H]1C(O)=C(C(=O)NCN2CCCC2)C(=O)[C@@]2(O)C(O)=C3C(=O)c4c(O)cccc4[C@@](C)(O)[C@H]3C[C@@H]12 [Rolitetracycline] | 67.7 | 86.1 | 95.7 | 112 | 61.1 | 102 | 54.3 | 82.5 | 53.9 | 113 | 88.8 | 71.2 | 105 | 
4 | Nc1c2ccccc2nc2ccccc12 [9-Aminoacridine] | 70.5 | 58.5 | 63.1 | 25.8 | 42.8 | 28.8 | 34.6 | 36.4 | 43.6 | 56.9 | 34.1 | 63.5 | 38.7 | 
5 | CCc1oc2ccccc2c1C(=O)c1cc(Br)c(O)c(Br)c1 [Benzbromarone] | 128 | 105 |  |  |  |  |  |  |  |  |  |  |  | viability at 10 µM [1, 14]: 86.2%; viability at 10 µM [3, 15]: 51.5%; viability at 10 µM [4, 16]: 80.1%; viability at 10 µM [5, 17]: 85.5%; viability at 10 µM [7, 19]: 99.9%; viability at 10 µM [8, 20]: 99.2%; viability at 10 µM [9, 21]: 104%; viability at 10 µM [10, 22]: 75.3%; viability at 10 µM [11, 23]: 52.8%; viability at 10 µM [12, 24]: 103%; viability at 10 µM [13, 25]: 80.9%
6 | NC(CO)(CO)CO [Trometamol] | 90.4 | 68 | 88.3 | 79.5 | 78.1 | 91.3 | 102 | 126 | 90.9 | 95.4 | 98.8 | 96.7 | 97 | 
7 | O=C(O)c1ccccc1 [Benzoic acid] | 41.9 |  |  |  |  |  |  |  |  |  |  |  |  | viability at 10 µM [1, 26]: 43.4%; viability at 10 µM [3, 27]: 36.7%; viability at 10 µM [4, 28]: 53.1%; viability at 10 µM [5, 29]: 111%; viability at 10 µM [6, 30]: 60.5%; viability at 10 µM [7, 31]: 39.5%; viability at 10 µM [8, 32]: 37%; viability at 10 µM [9, 33]: 59.6%; viability at 10 µM [10, 34]: 57.2%; viability at 10 µM [11, 35]: 31.4%; viability at 10 µM [12, 36]: 79.1%; viability at 10 µM [13, 37]: 36.8%
8 | CCCCCCCCCCCCCCCC[n+]1ccccc1 [Cetylpyridinium Chloride] | 33.6 |  |  |  |  |  |  |  |  |  |  |  |  | viability at 10 µM ([1]; MKN-45, 72 h, read-out: cell viability (survival rate), MKN-45): 47.4%; viability at 10 µM ([3]; A549, 72 h, read-out: cell viability (survival rate), A549): 29.2%; viability at 10 µM ([4]; 72 h, read-out: cell viability (survival rate), AGS): 33.4%; viability at 10 µM ([5]; HL-60, 72 h, read-out: cell viability (survival rate), HL-60): 30.8%; viability at 10 µM ([6]; 72 h, read-out: cell viability (survival rate), LoVo): 50.7%; viability at 10 µM ([7]; 72 h, read-out: cell viability (survival rate), TSGH): 37.2%; viability at 10 µM ([8]; A-375, 72 h, read-out: cell viability (survival rate), A375): 35.6%; viability at 10 µM ([9]; 72 h, read-out: cell viability (survival rate), HeLa): 37.1%; viability at 10 µM ([10]; NCI-H1650, 72 h, read-out: cell viability (survival rate), H1650): 48.7%; viability at 10 µM ([11]; MCF7, 72 h, read-out: cell viability (survival rate), MCF7): 40.9%; viability at 10 µM ([12]; HepG2, 72 h, read-out: cell viability (survival rate), HepG2): 60.9%; viability at 10 µM ([13]; 72 h, read-out: cell viability (survival rate), PC3): 37.1%
9 | C[C@@H]1CCC[C@H](C)N1NC(=O)c1ccc(Cl)c(S(N)(=O)=O)c1 [Clopamide] | 102 | 54.3 | 89.4 | 32.4 | 50.3 | 102 | 59 | 63.1 | 87.1 | 54 | 33.4 | 92.8 | 40.3 | 
10 | COc1cc(/C=C/C(=O)CC(=O)/C=C/c2ccc(O)c(OC)c2)ccc1O [Curcumin] | 93.6 | 80 | 46.4 | 105 | 72.2 | 111 | 95.4 | 104 | 66.2 | 74.7 | 61.8 | 98.3 | 77.9 | 
